# Measured values taken from the supplement of paper PMC12076712.
# Assays:
# Experiment in all cases: pIC50, kinobeads binding competition
# UniProt Q13557 = target: UniProt Q13557
# Method in brief: (§1)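 To obtain pIC50, fold changes versus vehicle were fitted to logistic dose-response curves (R drc package) across biological duplicates. Protein binding to Kinobeads was quantified by TMT10 LC-MS/MS of digested bead-bound proteins. Treatments used nine concentrations with a top of 30 μM, applied to live Jurkat cells in 1:4 steps for 60 min at 37 °C before lysis, or to Jurkat lysate or a 1:1:1:1 HEK293/K-562/HepG2/placenta lysate mix in 1:5 steps for 60 min at 4 °C.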
# UniProt Q13131 = target: UniProt Q13131
# Method in brief: as §1
# PRKG1 = target: T1, PRKG1 (UniProt Q13976); conditions: cell material: Lysate mix
# T1 sequence (whole entry): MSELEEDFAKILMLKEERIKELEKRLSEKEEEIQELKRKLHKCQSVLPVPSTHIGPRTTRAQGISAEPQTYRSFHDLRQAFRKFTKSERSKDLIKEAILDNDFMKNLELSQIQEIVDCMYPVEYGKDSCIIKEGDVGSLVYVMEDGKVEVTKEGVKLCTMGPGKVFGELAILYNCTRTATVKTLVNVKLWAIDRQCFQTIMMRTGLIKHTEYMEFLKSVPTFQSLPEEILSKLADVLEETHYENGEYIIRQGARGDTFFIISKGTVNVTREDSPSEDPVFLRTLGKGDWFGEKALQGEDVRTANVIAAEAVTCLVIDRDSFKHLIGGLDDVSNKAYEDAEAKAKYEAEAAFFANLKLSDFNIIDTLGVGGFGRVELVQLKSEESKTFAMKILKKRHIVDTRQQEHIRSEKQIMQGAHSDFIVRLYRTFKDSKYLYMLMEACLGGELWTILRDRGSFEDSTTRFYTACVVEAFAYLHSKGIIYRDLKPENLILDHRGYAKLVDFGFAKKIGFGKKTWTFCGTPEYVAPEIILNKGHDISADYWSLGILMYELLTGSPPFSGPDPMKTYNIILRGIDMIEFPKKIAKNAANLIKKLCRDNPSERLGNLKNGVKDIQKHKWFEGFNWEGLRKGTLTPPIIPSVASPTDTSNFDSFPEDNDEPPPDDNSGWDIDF
# Method in brief: as §1
# UniProt Q16584 = target: UniProt Q16584
# Method in brief: as §1
# BMPR1A = BMPR1A (UniProt P36894)
# Method in brief: as §1
# UniProt P35968 = conditions: cell material: Lysate mix
# Method in brief: as §1
# EIF2AK3 = target: T2, EIF2AK3 (UniProt Q9NZJ5); conditions: cell material: Lysate mix
# T2 sequence (whole entry): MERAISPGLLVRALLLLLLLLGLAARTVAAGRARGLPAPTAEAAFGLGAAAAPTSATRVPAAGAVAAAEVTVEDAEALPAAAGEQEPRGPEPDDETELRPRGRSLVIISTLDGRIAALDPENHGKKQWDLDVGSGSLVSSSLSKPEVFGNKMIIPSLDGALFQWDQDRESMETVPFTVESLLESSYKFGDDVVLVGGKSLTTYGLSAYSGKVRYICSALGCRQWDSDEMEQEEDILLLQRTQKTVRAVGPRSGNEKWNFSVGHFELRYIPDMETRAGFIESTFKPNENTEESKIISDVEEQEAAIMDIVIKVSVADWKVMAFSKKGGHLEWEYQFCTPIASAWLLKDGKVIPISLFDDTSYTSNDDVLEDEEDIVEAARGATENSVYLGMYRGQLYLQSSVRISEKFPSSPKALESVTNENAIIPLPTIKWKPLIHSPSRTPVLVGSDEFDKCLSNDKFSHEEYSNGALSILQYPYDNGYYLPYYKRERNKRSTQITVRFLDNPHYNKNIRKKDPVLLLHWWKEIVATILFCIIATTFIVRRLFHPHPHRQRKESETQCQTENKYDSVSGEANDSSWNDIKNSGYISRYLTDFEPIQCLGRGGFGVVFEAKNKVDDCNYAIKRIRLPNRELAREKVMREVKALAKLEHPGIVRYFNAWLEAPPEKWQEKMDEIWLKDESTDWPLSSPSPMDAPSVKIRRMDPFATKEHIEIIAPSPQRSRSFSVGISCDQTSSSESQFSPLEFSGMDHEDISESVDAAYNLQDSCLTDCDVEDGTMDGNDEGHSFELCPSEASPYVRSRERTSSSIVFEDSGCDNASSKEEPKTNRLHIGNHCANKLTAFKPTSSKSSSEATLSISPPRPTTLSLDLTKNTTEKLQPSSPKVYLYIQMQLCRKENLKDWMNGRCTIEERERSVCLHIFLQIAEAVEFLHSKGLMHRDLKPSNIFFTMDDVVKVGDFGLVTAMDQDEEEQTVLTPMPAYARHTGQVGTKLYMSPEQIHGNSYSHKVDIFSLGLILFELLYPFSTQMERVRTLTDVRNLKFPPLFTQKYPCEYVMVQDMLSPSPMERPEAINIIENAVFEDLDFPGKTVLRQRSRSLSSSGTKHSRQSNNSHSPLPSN
# Method in brief: as §1
# ROCK2 = ROCK2 (UniProt O75116)
# Method in brief: as §1
# PIM1 = PIM1 (UniProt P11309); conditions: cell material: Lysate mix
# Method in brief: as §1
# UniProt O43318 = target: T3, UniProt O43318
# T3 sequence (whole entry): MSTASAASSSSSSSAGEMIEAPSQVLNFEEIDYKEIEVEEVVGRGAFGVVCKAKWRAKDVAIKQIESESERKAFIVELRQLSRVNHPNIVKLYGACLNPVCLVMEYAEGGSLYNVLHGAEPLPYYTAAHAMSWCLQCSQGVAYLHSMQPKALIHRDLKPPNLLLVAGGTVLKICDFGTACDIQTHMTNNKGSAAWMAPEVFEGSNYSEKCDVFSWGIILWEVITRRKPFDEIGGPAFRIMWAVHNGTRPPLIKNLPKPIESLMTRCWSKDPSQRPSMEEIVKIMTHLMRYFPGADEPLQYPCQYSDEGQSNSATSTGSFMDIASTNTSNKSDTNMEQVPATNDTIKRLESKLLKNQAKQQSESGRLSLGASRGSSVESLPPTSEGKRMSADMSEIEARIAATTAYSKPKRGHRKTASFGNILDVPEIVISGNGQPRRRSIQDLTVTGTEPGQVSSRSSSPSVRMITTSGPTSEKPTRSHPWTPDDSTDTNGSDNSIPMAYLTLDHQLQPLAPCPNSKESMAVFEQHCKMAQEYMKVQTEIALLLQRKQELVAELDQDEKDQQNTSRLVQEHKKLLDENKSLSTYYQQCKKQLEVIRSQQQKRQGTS
# Method in brief: as §1
# UniProt P78527 = target: UniProt P78527
# Method in brief: as §1
SMILES,pIC50 (UniProt Q13557; cell material: Lysate mix),pIC50 (UniProt Q13131; cell material: Lysate mix),pIC50 (PRKG1),pIC50 (UniProt Q16584; cell material: Lysate mix),pIC50 (BMPR1A; cell material: Lysate mix),pIC50 (UniProt P35968),pIC50 (EIF2AK3),pIC50 (ROCK2; cell material: Lysate mix),pIC50 (PIM1),pIC50 (UniProt O43318; cell material: Lysate mix),pIC50 (UniProt P78527; cell material: Lysate mix),pIC50 (UniProt Q13557; cell material: Jurkat cells),pIC50 (UniProt Q13557; cell material: Jurkat lysate),pIC50 (UniProt Q13131; cell material: Jurkat cells),pIC50 (UniProt Q13131; cell material: Jurkat lysate),pIC50 (UniProt Q16584; cell material: Jurkat cells),pIC50 (UniProt Q16584; cell material: Jurkat lysate),pIC50 (BMPR1A; cell material: Jurkat cells),pIC50 (BMPR1A; cell material: Jurkat lysate),pIC50 (ROCK2; cell material: Jurkat cells),pIC50 (UniProt O43318; cell material: Jurkat cells),pIC50 (UniProt O43318; cell material: Jurkat lysate),pIC50 (UniProt P78527; cell material: Jurkat cells),pIC50 (UniProt P78527; cell material: Jurkat lysate)
C#CCNC(=O)c1cc(Nc2cc(C3CC3)[nH]n2)nc(N2CCN(Cc3ccc(S(=O)(=O)F)cc3)CC2)n1,< 4.52,7.2,< 4.52,5.64,4.99,< 4.52,< 4.52,< 4.52,< 4.52,< 4.52,< 4.52,4.9,< 4.52,6.64,6.58,6.26,5.22,4.69,< 4.52,4.76,5.87,< 4.52,< 4.52,< 4.52
O=C(NCCNC(=O)c1cc(Nc2cc(C3CC3)[nH]n2)nc(N2CCN(Cc3ccc(S(=O)(=O)F)cc3)CC2)n1)OC1CC/C=C/CCC1 (configuration not stated),< 4.52,5.56,< 4.52,< 4.52,< 4.52,< 4.52,< 4.52,< 4.52,< 4.52,< 4.52,< 4.52,< 4.52,< 4.52,6.8,5.32,5.96,< 4.52,< 4.52,< 4.52,< 4.52,5.65,< 4.52,< 4.52,< 4.52
Cc1cc(Nc2cc(C(=O)NCCNC(=O)OC3CC/C=C/CCC3)nc(N3CCN(Cc4ccc(S(=O)(=O)F)cc4)CC3)n2)n[nH]1 (configuration not stated),< 4.52,5.24,< 4.52,< 4.52,< 4.52,< 4.52,< 4.52,< 4.52,< 4.52,< 4.52,< 4.52,–,–,–,–,–,–,–,–,–,–,–,–,–

# Further lines, with some results ahead:
pIC50 (UniProt Q13557; cell material: Lysate mix),pIC50 (UniProt Q13131; cell material: Lysate mix),pIC50 (PRKG1),pIC50 (UniProt Q16584; cell material: Lysate mix),pIC50 (BMPR1A; cell material: Lysate mix),pIC50 (UniProt P35968),pIC50 (EIF2AK3),pIC50 (ROCK2; cell material: Lysate mix),pIC50 (PIM1),pIC50 (UniProt O43318; cell material: Lysate mix),pIC50 (UniProt P78527; cell material: Lysate mix),SMILES,pIC50 (UniProt Q13557; cell material: Jurkat cells),pIC50 (UniProt Q13557; cell material: Jurkat lysate),pIC50 (UniProt Q13131; cell material: Jurkat cells),pIC50 (UniProt Q13131; cell material: Jurkat lysate),pIC50 (UniProt Q16584; cell material: Jurkat cells),pIC50 (UniProt Q16584; cell material: Jurkat lysate),pIC50 (BMPR1A; cell material: Jurkat cells),pIC50 (BMPR1A; cell material: Jurkat lysate),pIC50 (ROCK2; cell material: Jurkat cells),pIC50 (UniProt O43318; cell material: Jurkat cells),pIC50 (UniProt O43318; cell material: Jurkat lysate),pIC50 (UniProt P78527; cell material: Jurkat cells),pIC50 (UniProt P78527; cell material: Jurkat lysate)
< 4.52,6.3,< 4.52,< 4.52,< 4.52,< 4.52,< 4.52,< 4.52,< 4.52,< 4.52,< 4.52,C#CCNC(=O)c1cc(Nc2cc(C)[nH]n2)nc(N2CCN(Cc3ccc(S(=O)(=O)F)cc3)CC2)n1,–,–,–,–,–,–,–,–,–,–,–,–,–
< 4.52,7.03,< 4.52,5.29,4.87,< 4.52,< 4.52,< 4.52,< 4.52,< 4.52,< 4.52,CCNC(=O)c1cc(Nc2cc(C3CC3)[nH]n2)nc(N2CCN(Cc3ccc(S(=O)(=O)F)cc3)CC2)n1,–,–,–,–,–,–,–,–,–,–,–,–,–
< 4.52,6.97,< 4.52,< 4.52,< 4.52,< 4.52,< 4.52,< 4.52,< 4.52,< 4.52,< 4.52,CCNC(=O)c1cc(Nc2cc(C)[nH]n2)nc(N2CCN(Cc3ccc(S(=O)(=O)F)cc3)CC2)n1,–,–,–,–,–,–,–,–,–,–,–,–,–
